Results as given in ChEMBL document CHEMBL3352757, “Mono- and di-halogenated histamine, histidine and carnosine derivatives are potent carbonic anhydrase I, II, VII, XII and XIV activators” (Bioorg Med Chem, 2014).

What was measured:
[1] = target: Carbonic anhydrase 1 (Homo sapiens) (UniProt P00915); assay: Activation of […] human carbonic anhydrase-1 incubated for 15 mins prior to testing by stopped-flow CO2 hydrase assay
[2] = target: Carbonic anhydrase 2 (Homo sapiens) (UniProt P00918); assay: Activation of […] human carbonic anhydrase-2 incubated for 15 mins prior to testing by stopped-flow CO2 hydrase assay
[3] = target: Carbonic anhydrase 7 (Homo sapiens) (UniProt P43166); assay: Activation of […] human carbonic anhydrase-7 incubated for 15 mins prior to testing by stopped-flow CO2 hydrase assay
[4] = target: Carbonic anhydrase 12 (Homo sapiens) (UniProt O43570); assay: Activation of transmembrane human carbonic anhydrase-12 incubated for 15 mins prior to testing by stopped-flow CO2 hydrase assay
[5] = target: Carbonic anhydrase 14 (Homo sapiens) (UniProt Q9ULX7); assay: Activation of transmembrane human carbonic anhydrase-14 incubated for 15 mins prior to testing by stopped-flow CO2 hydrase assay
Chain of Carbonic anhydrase 14 (Homo sapiens) (Q9ULX7 whole entry): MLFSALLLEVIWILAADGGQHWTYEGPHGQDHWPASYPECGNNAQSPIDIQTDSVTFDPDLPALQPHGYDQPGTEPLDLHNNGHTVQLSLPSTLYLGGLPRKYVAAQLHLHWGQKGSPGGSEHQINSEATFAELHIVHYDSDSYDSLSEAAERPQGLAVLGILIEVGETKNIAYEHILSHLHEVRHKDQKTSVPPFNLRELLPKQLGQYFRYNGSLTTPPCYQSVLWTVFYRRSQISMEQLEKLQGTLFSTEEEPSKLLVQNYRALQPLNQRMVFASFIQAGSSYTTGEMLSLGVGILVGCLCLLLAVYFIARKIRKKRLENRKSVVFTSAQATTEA

Chain of Carbonic anhydrase 7 (Homo sapiens) (P43166 whole entry): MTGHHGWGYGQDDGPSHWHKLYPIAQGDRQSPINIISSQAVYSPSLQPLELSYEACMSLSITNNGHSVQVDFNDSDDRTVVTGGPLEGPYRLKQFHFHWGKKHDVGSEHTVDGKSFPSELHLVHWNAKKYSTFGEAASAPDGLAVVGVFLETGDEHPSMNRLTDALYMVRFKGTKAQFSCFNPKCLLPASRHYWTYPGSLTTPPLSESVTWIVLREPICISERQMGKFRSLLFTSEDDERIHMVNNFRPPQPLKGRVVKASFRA
Chain of Carbonic anhydrase 1 (Homo sapiens) (P00915 2-261 limits assumed): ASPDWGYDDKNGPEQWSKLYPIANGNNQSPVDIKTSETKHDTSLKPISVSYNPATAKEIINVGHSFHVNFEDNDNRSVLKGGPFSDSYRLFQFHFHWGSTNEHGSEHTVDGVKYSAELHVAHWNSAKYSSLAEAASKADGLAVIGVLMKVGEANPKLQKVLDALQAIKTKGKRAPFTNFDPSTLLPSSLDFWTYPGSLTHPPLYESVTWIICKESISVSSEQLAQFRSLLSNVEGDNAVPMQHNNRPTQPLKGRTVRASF
Chain of Carbonic anhydrase 12 (Homo sapiens) (O43570 whole entry): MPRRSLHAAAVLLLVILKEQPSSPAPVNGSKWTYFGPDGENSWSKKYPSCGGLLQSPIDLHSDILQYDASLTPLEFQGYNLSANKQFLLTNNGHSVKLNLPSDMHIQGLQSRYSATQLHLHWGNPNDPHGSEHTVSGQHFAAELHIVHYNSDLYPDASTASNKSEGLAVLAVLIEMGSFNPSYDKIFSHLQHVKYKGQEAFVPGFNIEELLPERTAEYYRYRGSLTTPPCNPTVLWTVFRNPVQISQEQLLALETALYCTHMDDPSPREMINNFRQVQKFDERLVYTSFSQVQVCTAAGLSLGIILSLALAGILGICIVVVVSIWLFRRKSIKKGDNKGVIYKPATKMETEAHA

Row | KA [1] [µM] | KA [2] [µM] | KA [3] [µM] | KA [4] [µM] | KA [5] [µM] | SMILES
1 | 0.02 | 10.4 | 0.88 | 0.91 | 0.93 | COC(=O)[C@@H](N)Cc1c[nH]cn1
2 | 2.45 | 40.3 | 50.7 | 25.3 | 1.4 | COC(=O)[C@H](Cc1nc(Cl)[nH]c1Cl)NC(=O)OC(C)(C)C
3 | 34.3 | 48.5 | 12.1 | 2.5 | 7.9 | COC(=O)[C@H](Cc1nc[nH]c1Cl)NC(=O)CCNC(=O)OC(C)(C)C
4 | 10.1 | 18.6 | 0.12 | 9.7 | 33.5 | COC(=O)[C@H](Cc1nc(Cl)[nH]c1Cl)NC(=O)CCNC(=O)OC(C)(C)C
5 | 21.5 | 34.8 | 4 | 31.6 | 40.8 | COC(=O)[C@H](Cc1nc(Br)[nH]c1Br)NC(=O)CCNC(=O)OC(C)(C)C
6 | 16.5 | 24.8 | 13.1 | 40.2 | 28.1 | CC(C)(C)OC(=O)NCCc1nc(Cl)[nH]c1Cl
7 | 18.7 | 8.2 | 0.74 | 40.5 | 52.7 | COC(=O)[C@H](Cc1nc(I)[nH]c1I)NC(=O)CCNC(=O)OC(C)(C)C
8 | 22.5 | 10.9 | 0.01 | 0.072 | 10.3 | COC(=O)[C@H](Cc1nc(Cl)[nH]c1Cl)NC(=O)CCN
9 | 0.96 | 1.12 | 3.6 | 10.9 | 24.3 | COC(=O)[C@@H](N)Cc1nc(I)[nH]c1I
10 | 1.4 | 1.08 | 9.7 | 0.83 | 22.1 | COC(=O)[C@@H](N)Cc1nc(Br)[nH]c1Br
11 | 0.0009 | 0.012 | 38.5 | 6.1 | 13.5 | COC(=O)[C@H](Cc1nc[nH]c1I)NC(=O)OC(C)(C)C
12 | 7.6 | 1.6 | 1.06 | 40.1 | 39.2 | COC(=O)[C@H](Cc1nc[nH]c1I)NC(=O)CCN
13 | 12.1 | 36.7 | 45.6 | 35 | 37.1 | CC(C)(C)OC(=O)NCCc1nc(I)[nH]c1I
14 | 31.2 | 10.5 | 24.9 | 27.1 | 20.6 | COC(=O)[C@@H](N)Cc1nc(Cl)[nH]c1Cl
15 | 21.3 | 13.1 | 36.1 | 0.078 | 6.4 | COC(=O)[C@@H](N)Cc1nc[nH]c1Cl
16 | 1.25 | 30.9 | 0.013 | 21.5 | 15.3 | COC(=O)[C@H](Cc1nc[nH]c1Cl)NC(=O)CCN

Row | KA [1] [µM] | KA [2] [µM] | KA [3] [µM] | KA [4] [µM] | KA [5] [µM] | SMILES
17 | 4.3 | 5.2 | 0.81 | 28.7 | 24.6 | COC(=O)[C@H](Cc1nc[nH]c1I)NC(=O)CCNC(=O)OC(C)(C)C
18 | 10.9 | 32 | 0.84 | 0.96 | 0.71 | COC(=O)[C@H](Cc1c[nH]cn1)NC(=O)CCN
19 | 29.3 | 13.6 | 21.5 | 44.3 | 30.9 | CC(C)(C)OC(=O)NCCc1nc[nH]c1I
20 | 13.6 | 10.4 | 12.3 | 1.01 | 5.2 | COC(=O)[C@@H](N)Cc1nc[nH]c1Br
21 | 0.0015 | 0.013 | 10.3 | 64.7 | 34.9 | COC(=O)[C@H](Cc1nc(I)[nH]c1I)NC(=O)OC(C)(C)C
22 | 13.3 | 28.5 | 28.3 | 37.4 | 29.5 | CC(C)(C)OC(=O)NCCc1nc(Br)[nH]c1Br
23 | 2.6 | 0.97 | 5.2 | 24.9 | 36.5 | COC(=O)[C@H](Cc1nc[nH]c1Br)NC(=O)CCNC(=O)OC(C)(C)C
24 | 10.1 | 29 | 47.6 | 42.5 | 24.1 | COC(=O)[C@H](Cc1nc[nH]c1Cl)NC(=O)OC(C)(C)C
25 | 7.1 | 44.5 | 10.4 | 52.8 | 34.7 | CC(C)(C)OC(=O)NCCc1nc[nH]c1Br
26 | 30.7 | 4.1 | 0.0081 | 1.84 | 18.9 | COC(=O)[C@H](Cc1nc(Br)[nH]c1Br)NC(=O)CCN
27 | 0.0012 | 0.32 | 6.2 | 14.3 | 7.8 | COC(=O)[C@@H](N)Cc1nc[nH]c1I
28 | 21.4 | 2.9 | 3.5 | 10.5 | 20.1 | COC(=O)[C@H](Cc1nc(I)[nH]c1I)NC(=O)CCN
29 | 2.1 | 1.78 | 1.02 | 30.7 | 28.4 | COC(=O)[C@H](Cc1nc[nH]c1Br)NC(=O)CCN
30 | 0.032 | 0.96 | 13.1 | 1.62 | 3.51 | COC(=O)[C@H](Cc1nc(Br)[nH]c1Br)NC(=O)OC(C)(C)C
31 | 7.3 | 26.5 | 40.2 | 10.7 | 0.92 | COC(=O)[C@H](Cc1nc[nH]c1Br)NC(=O)OC(C)(C)C
32 | 5.4 | 50.2 | 24.9 | 18.8 | 45.2 | CC(C)(C)OC(=O)NCCc1nc[nH]c1Cl

Row | SMILES | KA [1] [µM] | KA [2] [µM] | KA [3] [µM] | KA [4] [µM] | KA [5] [µM]
33 | NCCc1nc(Br)[nH]c1Br | 0.012 | 0.008 | 0.74 | 25.2 | 13.1
34 | NCCc1nc(Cl)[nH]c1Cl | 0.018 | 0.032 | 0.041 | 5.7 | 38.9
35 | NCCc1nc(I)[nH]c1I | 0.0007 | 0.001 | 1.39 | 34.6 | 15.5
36 | NCCc1nc[nH]c1Br | 0.015 | 0.096 | 5.2 | 3.2 | 16.2
37 | NCCc1nc[nH]c1Cl | 0.021 | 0.115 | 15.3 | 12.1 | 38.7
38 | NCCc1nc[nH]c1I | 0.0009 | 0.065 | 7.6 | 0.9 | 7.1
